Source: ChEMBL document CHEMBL1140184, “Synthesis and structure-activity relationship studies of highly potent novel oxazolidinone antibacterials” (2008)
Values after ≈ are worked out from the molar mass of the structure shown.

How the values were obtained:
Assay type in all cases: functional
Staphylococcus aureus [1] = assay: Antibacterial activity against methicillin-resistant Staphylococcus aureus TK7 by agar dilution method
Staphylococcus aureus [2] = assay: Antibacterial activity against methicillin-sensitive Staphylococcus aureus Smith by agar dilution method
Streptococcus pneumoniae [3] = assay: Antibacterial activity against penicillin-resistant Streptococcus pneumoniae PR44 by agar dilution method
Enterococcus faecium = assay: Antibacterial activity against vancomycin-resistant Enterococcus faecium A2280 by agar dilution method
Streptococcus pneumoniae [4] = assay: Antibacterial activity against penicillin-susceptible Streptococcus pneumoniae IID553 by agar dilution method
Haemophilus influenzae = assay: Antibacterial activity against Haemophilus influenzae IID983 by agar dilution method

Compound	MIC (Staphylococcus aureus [1]) [µg/mL]	MIC (Staphylococcus aureus [2]) [µg/mL]	MIC (Streptococcus pneumoniae [3]) [µg/mL]	MIC (Enterococcus faecium) [µg/mL]	MIC (Streptococcus pneumoniae [4]) [µg/mL]	MIC (Haemophilus influenzae) [µg/mL]
N#Cc1ccc(N2C[C@@H]3[C@H](C2)[C@@]3(C#N)c2ccc(-c3ccc(N4C[C@H](Cn5ccnn5)OC4=O)cc3F)cn2)nc1	0.06 (≈ 0.11 µM)	0.06 (≈ 0.11 µM)	0.06 (≈ 0.11 µM)	0.125 (≈ 0.228 µM)	0.125 (≈ 0.228 µM)	> 2
N[C@]1(c2ccc(-c3ccc(N4C[C@H](Cn5ccnn5)OC4=O)cc3F)cn2)[C@@H]2CNC[C@@H]21	2 (≈ 4.59 µM)	1 (≈ 2.3 µM)	0.5 (≈ 1.15 µM)	2 (≈ 4.59 µM)	0.5 (≈ 1.15 µM)	32 (≈ 73.5 µM)
CC(=O)NC[C@H]1CN(c2ccc(-c3ccc([C@@]4(C#N)[C@@H]5CNC[C@@H]54)nc3)c(F)c2)C(=O)O1	0.125 (≈ 0.287 µM)	0.125 (≈ 0.287 µM)	0.06 (≈ 0.138 µM)	0.25 (≈ 0.574 µM)	0.125 (≈ 0.287 µM)	4 (≈ 9.19 µM)
COC(=S)NC[C@H]1CN(c2ccc(-c3ccc([C@@]4(C#N)[C@@H]5CNC[C@@H]54)nc3)c(F)c2)C(=O)O1	0.03 (≈ 0.0642 µM)	0.03 (≈ 0.0642 µM)	0.03 (≈ 0.0642 µM)	0.06 (≈ 0.128 µM)	0.03 (≈ 0.0642 µM)	0.5 (≈ 1.07 µM)
N#C[C@]1(c2ccc(-c3ccc(N4C[C@H](CNc5ccon5)OC4=O)cc3F)cn2)[C@@H]2CNC[C@@H]21	0.125 (≈ 0.271 µM)	0.125 (≈ 0.271 µM)	0.25 (≈ 0.543 µM)	0.5 (≈ 1.09 µM)	0.25 (≈ 0.543 µM)	> 16
N#C[C@]1(c2ccc(-c3ccc(N4C[C@H](CNC(=O)C5CC5)OC4=O)cc3F)cn2)[C@@H]2CNC[C@@H]21	0.25 (≈ 0.542 µM)	0.5 (≈ 1.08 µM)	0.25 (≈ 0.542 µM)	0.5 (≈ 1.08 µM)	0.25 (≈ 0.542 µM)	8 (≈ 17.3 µM)
NC(=O)[C@]1(c2ccc(-c3ccc(N4C[C@H](Cn5ccnn5)OC4=O)cc3F)cn2)[C@@H]2CNC[C@@H]21	2 (≈ 4.32 µM)	2 (≈ 4.32 µM)	0.5 (≈ 1.08 µM)	4 (≈ 8.63 µM)	1 (≈ 2.16 µM)	
CCC(=O)NC[C@H]1CN(c2ccc(-c3ccc([C@@]4(C#N)[C@@H]5CNC[C@@H]54)nc3)c(F)c2)C(=O)O1	0.25 (≈ 0.556 µM)	0.25 (≈ 0.556 µM)	0.125 (≈ 0.278 µM)	0.25 (≈ 0.556 µM)	0.25 (≈ 0.556 µM)	8 (≈ 17.8 µM)
N#C[C@]1(c2ccc(-c3ccc(N4C[C@H](CNC(=O)C(F)F)OC4=O)cc3F)cn2)[C@@H]2CNC[C@@H]21	0.125 (≈ 0.265 µM)	0.125 (≈ 0.265 µM)	0.06 (≈ 0.127 µM)	0.25 (≈ 0.53 µM)	0.06 (≈ 0.127 µM)	2 (≈ 4.24 µM)
N#C[C@]1(c2ccc(-c3ccc(N4C[C@H](Cn5ccnn5)OC4=O)cc3F)cn2)[C@@H]2CS(=O)(=O)C[C@@H]21	0.125 (≈ 0.253 µM)	0.06 (≈ 0.121 µM)	0.06 (≈ 0.121 µM)	0.06 (≈ 0.121 µM)	0.125 (≈ 0.253 µM)	4 (≈ 8.09 µM)
N#C[C@]1(c2ccc(-c3ccc(N4C[C@H](Cn5ccnn5)OC4=O)cc3)cn2)[C@@H]2CNC[C@@H]21	0.125 (≈ 0.292 µM)	0.125 (≈ 0.292 µM)	0.125 (≈ 0.292 µM)	0.25 (≈ 0.585 µM)	0.125 (≈ 0.292 µM)	2 (≈ 4.68 µM)
N#C[C@]1(c2ccc(-c3ccc(N4C[C@H](Cn5ccnn5)OC4=O)cc3F)cn2)[C@@H]2CNC[C@@H]21	0.06 (≈ 0.135 µM)	0.06 (≈ 0.135 µM)	0.06 (≈ 0.135 µM)	0.125 (≈ 0.281 µM)	0.06 (≈ 0.135 µM)	2 (≈ 4.49 µM)
N#C[C@]1(c2ccc(-c3c(F)cc(N4C[C@H](Cn5ccnn5)OC4=O)cc3F)cn2)[C@@H]2C[S+]([O-])C[C@@H]21 (stereo partly specified)	0.06 (≈ 0.121 µM)	0.06 (≈ 0.121 µM)	0.125 (≈ 0.252 µM)	0.125 (≈ 0.252 µM)	0.125 (≈ 0.252 µM)	8 (≈ 16.1 µM)
N#C[C@]1(c2ccc(-c3ccc(N4C[C@H](Cn5ccnn5)OC4=O)cc3F)cc2F)[C@@H]2CNC[C@@H]21	0.125 (≈ 0.27 µM)	0.25 (≈ 0.541 µM)	0.25 (≈ 0.541 µM)	0.25 (≈ 0.541 µM)	0.25 (≈ 0.541 µM)	16 (≈ 34.6 µM)
N#C[C@]1(c2c(F)cc(-c3ccc(N4C[C@H](Cn5ccnn5)OC4=O)cc3F)cc2F)[C@@H]2CNC[C@@H]21	0.5 (≈ 1.04 µM)	0.5 (≈ 1.04 µM)	1 (≈ 2.08 µM)	0.25 (≈ 0.52 µM)	1 (≈ 2.08 µM)	> 128
N#C[C@]1(c2ccc(-c3c(F)cc(N4C[C@H](Cn5ccnn5)OC4=O)cc3F)cn2)[C@@H]2CS(=O)(=O)C[C@@H]21	0.06 (≈ 0.117 µM)	0.06 (≈ 0.117 µM)	0.06 (≈ 0.117 µM)	0.125 (≈ 0.244 µM)	0.06 (≈ 0.117 µM)	4 (≈ 7.8 µM)
N#C[C@]1(c2ccc(-c3c(F)cc(N4C[C@H](Cn5ccnn5)OC4=O)cc3F)cn2)[C@@H]2CSC[C@@H]21	0.06 (≈ 0.125 µM)	0.06 (≈ 0.125 µM)	0.25 (≈ 0.52 µM)	0.5 (≈ 1.04 µM)	0.25 (≈ 0.52 µM)	> 16
